Experimental findings from PMC4721062, “Oxadiazole-2-oxides may have other functional targets, in addition to SjTGR, through which they cause mortality in Schistosoma japonicum” (Parasites & Vectors, 2016) are described below.

Each structure is given as a SMILES string. Read-outs that look alike come from different tables or passages of the source.

One series has as its target T1, recombinant SjTGR (Schistosoma japonicum, UniProt B5THG7).
T1 sequence (B5THG7 1-596): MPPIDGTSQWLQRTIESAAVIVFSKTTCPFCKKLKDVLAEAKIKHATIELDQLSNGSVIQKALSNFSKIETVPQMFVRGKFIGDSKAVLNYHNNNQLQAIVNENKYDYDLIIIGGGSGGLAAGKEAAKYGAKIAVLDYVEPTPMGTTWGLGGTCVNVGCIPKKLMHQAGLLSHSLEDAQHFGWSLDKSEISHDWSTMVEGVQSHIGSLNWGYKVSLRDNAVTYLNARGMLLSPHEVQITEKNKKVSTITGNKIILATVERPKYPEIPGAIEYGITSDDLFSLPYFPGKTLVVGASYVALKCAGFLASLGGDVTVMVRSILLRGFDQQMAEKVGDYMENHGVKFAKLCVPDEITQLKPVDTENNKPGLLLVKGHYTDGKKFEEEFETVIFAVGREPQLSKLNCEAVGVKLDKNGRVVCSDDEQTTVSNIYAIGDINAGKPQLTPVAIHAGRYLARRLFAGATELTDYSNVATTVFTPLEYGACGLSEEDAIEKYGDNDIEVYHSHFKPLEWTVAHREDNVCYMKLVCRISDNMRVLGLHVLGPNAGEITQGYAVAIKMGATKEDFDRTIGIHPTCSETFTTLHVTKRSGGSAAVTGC
Briefly: Inhibition of TrxR activity of recombinant SjTGR (DTNB assay). Particulars: IC50 of SjTGR, 50 nM SjTGR, 1 mM NADPH, 15 min preincubation, DTNB reduction. The class given is biochemical. In short, it runs like this:
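SjTGR (50 nM) preincubated 15 min at room temperature with 1 mM NADPH and oxadiazole-2-oxides (2-20 μM). Reaction started with potassium phosphate pH 7.4, 10 mM EDTA, 100 μM NADPH, 3 mM DTNB; A412 increase followed over first 2 min, triplicates.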

Series [1] can be described thus: Cytotoxicity assay on Hela cells (MTT). The class given is cell-based. Particulars: human. Here is the method: Cytotoxicity assays were performed using Hela cells. Cells in the exponential growth phase were collected by centrifugation and a concentration of 4–5 × 10^4/mL was created. 100 μL of the cell suspension was added to each well of a 96-well plate and cultured overnight at 37 °C in a humid atmosphere with 5 % CO2. Oxadiazole-2-oxides (at 10, 20, 40, 80 and 160 μM) were added. Each concentration was assayed in triplicate, and control wells (no cells and no drugs) were assayed at the same time. The “no cell” control wells only contained RPMI 1640 medium, MTT, DMSO, and oxadiazole-2-oxides. The “no drug” control wells contained the Hela cells, RPMI 1640 medium, MTT and DMSO. The cells were cultured for 48 h at 37 °C in a humid atmosphere with 5 % CO2. Then, 20 μL of 5 mg/mL MTT was added to each well and the culture conditions were maintained for 4 h. After this point, the medium was removed and 150 μL DMSO was added into each well to dissolve any crystallisation. The value of absorbance at 570 nm of each well was measured (at 570 nm) with a microplate reader to assess the toxic effect of the oxadiazole-2-oxides on the vertebrate cells.

In a further series the test system is adult S. japonicum. The series can be described thus: microbe, parasite or virus in culture. The class given is cell-based. Particulars: adult worms. The method in brief:
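Adult worm pairs recovered by portal perfusion from ICR mice 35 days after infection with 50 cercariae, cultured in RPMI 1640 (pH 7.5, 20 mM HEPES, 10% FBS) at 37 °C, 5% CO2. Oxadiazole-2-oxides at 10, 25, 50, 100 μM; motility and survival scored microscopically at 24, 48, 72 h, death being no movement over 2 min; three independent experiments averaged.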

The subject of series [2] is adult S. japonicum in mice. The series can be described thus: Treatment of infected mice at adult worm stage. The class given is in vivo, Schistosoma japonicum (ICR mice). The method, then:
The abdominal skin of each mouse (ICR, female, 22–24 g) was exposed to 20 S. japonica cercariae (as described above). The mice were intraperitoneally injected with 10 mg/kg oxadiazole-2-oxides daily for 5 days, beginning either 7 or 35 days post-infection. Control mice were treated with 10 mg/kg of the carrier medium. All mice were sacrificed 42 days post-infection. The worm burden of each mouse was confirmed by counting the number of worms observed from a portal vein perfusion. The mouse livers were digested overnight with 5 % potassium hydroxyl solution at 37 °C and the eggs in the liver tissue were counted under an inverted phase contrast microscope. The worm and egg reduction rates were calculated using the following formulas: Wormreductionrate%=meannumberofadultwormspermouseincontrolgroup−meannumberofadultwormspermouseinexperimentalgroup/meannumberofadultwormspermouseincontrolgroup. Eggreductionrate%=meannumberofeggspermouseincontrolgroup−meannumberofeggspermouseinexperimentalgroup/meannumberofeggspermouseincontrolgroup.

[3] abbreviates: Schistosoma japonicum, 24 h, read-out: Killing activity 24hr.
Where [4] appears, read: Schistosoma japonicum, 48 h, read-out: Killing activity 48hr.
The mark [5] stands for this setting: Schistosoma japonicum, 72 h, read-out: Killing activity 72hr.
Setting [6] is: mice, 10 mg/kg i.p. daily for 5 days from day 35 post-infection, sacrificed day 42.

As for `O=C(C1CCCCC1)N1CC(=O)N2CCc3ccccc3C2C1` (centres unmarked) [PZQ, praziquantel, reference compound], at recombinant SjTGR, the IC50 is above 20 µM. Also, the viability at 72 h, 80 µM in series [1] came out at 76%. The killing at 25 µM was determined as 25% in the series on adult S. japonicum (Schistosoma japonicum, 25 μM, 24 h, read-out: Killing activity 24hr); 25% in the series with adult S. japonicum (Schistosoma japonicum, 25 μM, 48 h, read-out: Killing activity 48hr); 62.5% in the series with adult S. japonicum (Schistosoma japonicum, 25 μM, 72 h, read-out: Killing activity 72hr). In addition, in the series with adult S. japonicum (Schistosoma japonicum, 25 μM, 24 h, read-out: Mortality of adult worms), the mortality at 25 µM was determined as 25 ± 7.8%. For the same molecule, the killing at 50 µM was 25% with adult S. japonicum (setting [3]), 37.5% in the series with adult S. japonicum (setting [4]) and 62.5% in the series with adult S. japonicum (setting [5]). The killing at 100 µM with adult S. japonicum (setting [3]) stood at 37.5%; in the series with adult S. japonicum (setting [4]) it was 50%; with adult S. japonicum (setting [5]) it was 87.5%. Further, the “Killing activity 24hr” value in the series on adult S. japonicum (10 μM, 24 h) worked out at 25.0%D. Also, the “Killing activity 48hr” value in the series with adult S. japonicum (10 μM, 48 h) was 25.0%D. Further, the “Killing activity 72hr” value with adult S. japonicum (10 μM, 72 h) was 37.5%D. Further, the “Reduction in the female worms” value in series [2] (mice treated at adult worm stage (data not shown)) came out at 60.5%. Further, the “Number of eggs per gram of liver (Mean ± SD)” value in series [2] (setting [6]) was 3721.5 ± 1600.6. Also, the “Number of worms (Mean ± SD)” value in series [2] (setting [6]) worked out at 3.3 ± 1.7. Also, the Egg reduction rate in series [2] (mice, 10 mg/kg i.p. daily for 5 days from day 35 post-infection, versus control) is 53.7 (P < 0.01^*) %. In series [2] (mice, 10 mg/kg i.p. daily for 5 days from day 35 post-infection, versus control, 10 mg/kg), the Worm reduction rate was 72.3 (P < 0.01^*) %.
